From patent US20230295152A1 (SENDA BIOSCIENCES, INC., priority 2019, published 2023)
Where two headings read alike, the source gives them in different places.

Columns and labels:
[1] = Hepatocyte Stability Assay, mouse; for all read-outs here: tested at 1 µM; type: in vitro ADME; conditions: for Mouse hepatocyte clearance: mouse hepatocytes; for Suspension mou. heps Clint (% Qh): suspension mouse hepatocytes
Description: Example 7: Hepatocyte Stability Assay
(§1) • Preparation of working solutions: 10 mM stock solutions of test compound and positive control were prepared in DMSO. In separate conical tubes, the 10 mM solution of test compound and the positive control were diluted to 100 μM by combining 198 μL of 50% acetonitrile/50% water and 2 μL of 10 mM stock.
(§2) Data Analysis: All calculations were carried out using Microsoft Excel. Peak areas were determined from extracted ion chromatograms. In vitro half-life (t1/2) of parent compound was determined by regression analysis of the percent parent disappearance vs. time curve.
(§3) The in vitro half-life (in vitro t1/2) was determined from the slope value:
(§4) Conversion of the in vitro t1/2 (in min) into the in vitro intrinsic clearance (in vitro CLint, in μL/min/1×10^6 cells) was done using the following equation (mean of duplicate determinations):
(§5) V=incubation volume(0.2 mL);
(§6) N=number of hepatocytes per well(0.1×10^6 cells).

AHR = biological target: T1, AHR (Homo sapiens, UniProt P35869); assay: DRE-Luciferase Reporter Assay, HepG2 AhR-Lucia reporter cells; type: cell-based; conditions: with AHR activating ligand at EC50, read-out: HepG2-Luc IC50
T1 construct: other cell line with a DRE-luciferase reporter stably transfected; endogenous in cells; host or cells: HepG2 AhR-Lucia reporter cells
T1 sequence (P35869 11-848): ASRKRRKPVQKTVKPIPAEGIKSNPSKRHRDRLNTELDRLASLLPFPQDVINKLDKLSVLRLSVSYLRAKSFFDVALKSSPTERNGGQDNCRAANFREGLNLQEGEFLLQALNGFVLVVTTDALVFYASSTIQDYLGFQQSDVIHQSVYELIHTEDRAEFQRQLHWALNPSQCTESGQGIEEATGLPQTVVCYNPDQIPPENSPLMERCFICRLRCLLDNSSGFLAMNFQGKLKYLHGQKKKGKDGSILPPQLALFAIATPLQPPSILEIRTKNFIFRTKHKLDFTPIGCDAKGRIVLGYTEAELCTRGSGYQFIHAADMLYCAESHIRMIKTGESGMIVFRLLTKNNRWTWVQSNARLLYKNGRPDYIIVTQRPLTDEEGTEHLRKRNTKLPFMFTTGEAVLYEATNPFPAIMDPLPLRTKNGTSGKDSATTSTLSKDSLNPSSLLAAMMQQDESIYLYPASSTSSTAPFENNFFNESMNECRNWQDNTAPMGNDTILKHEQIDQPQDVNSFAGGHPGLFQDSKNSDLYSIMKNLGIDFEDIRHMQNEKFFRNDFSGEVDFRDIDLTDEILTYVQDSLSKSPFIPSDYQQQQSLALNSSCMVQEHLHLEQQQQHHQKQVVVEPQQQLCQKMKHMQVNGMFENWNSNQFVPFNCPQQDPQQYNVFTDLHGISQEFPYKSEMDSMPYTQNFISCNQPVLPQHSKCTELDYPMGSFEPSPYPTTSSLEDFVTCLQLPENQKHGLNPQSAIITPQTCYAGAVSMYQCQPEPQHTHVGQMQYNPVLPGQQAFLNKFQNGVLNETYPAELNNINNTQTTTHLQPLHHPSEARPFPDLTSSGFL
In short: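 DRE-luciferase reporter cells (e.g. HepG2 AhR-Lucia, 20000 cells) treated with antagonist log dilutions from 100 uM, then an AHR agonist (e.g. TCDD, kynurenine, ITE, FICZ) at its EC50 added after 1 hr. Secreted luciferase measured after 24 or 48 h (QUANTI-Luc); IC50 = concentration halving luciferase activity.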

[2] = Hepatocyte Stability Assay, rat; type: in vitro ADME; conditions: for Rat hepatocyte clearance: rat hepatocytes; for Suspension Rat heps Clint (% Qh): suspension rat hepatocytes; for all read-outs here: tested at 1 µM
Description: as §1
Preparation of Hepatocytes: Incubation medium (William's E Medium supplemented with GlutaMAX) and hepatocyte thawing medium were placed in a 37° C. water bath and allowed warming for at least 15 minutes prior to use. A vial of cryopreserved hepatocytes was transferred from storage, ensuring that vials remained at cryogenic temperatures until thawing process ensued. Cells were thawed by placing the vial in a 37° C. water bath and gently shaking the vials for 2 minutes. After thawing was completed, vial was sprayed with 70% ethanol and transferred to a biosafety cabinet. Wide-bore pipette tip were used to transfer hepatocytes into 50 mL conical tube containing thawing medium. The 50 mL conical tube were placed into a centrifuge and spun at 100 g for 10 minutes. Upon completion of spin, thawing medium was aspirated and resuspended hepatocytes in enough incubation medium to yield ˜1.5×10^6 cells/mL. Using an AO/PI Staining, cells were counted and the viable cell density was determined. Cells with poor viability (<75% viability) were determined to be not acceptable for use. Cells were diluted with incubation medium to a working cell density of 0.5×10^6 viable cells/mL.
Procedure for Stability Determination: 198 μL of hepatocytes were pipetted into each wells of a 96-well non-coated plate. The plate was placed in the incubator to allow the hepatocytes to warm for 10 minutes. 2 μL of the 100 μM test compound or positive control solutions were pipetted into respective wells of the 96-well non-coated plate to start the reaction. The plate was returned to the incubator for the designed time points. Well contents was transferred in 25 μL aliquots at time points of 0, 15, 30, 60, 90 and 120 minutes. The aliquots were then mixed with 6 volumes (150 μL) of acetonitrile containing internal standard, IS (100 nM alprazolam, 200 nM caffeine and 100 nM tolbutamide) to terminate the reaction. The mixture was vortex for 5 minutes. Samples were centrifuged for 45 minutes at 3,220 g. An aliquot of 100 μL of the supernatant was diluted by 100 μL ultra-pure water, and the mixture was used for LC/MS/MS analysis. All incubations were performed in duplicate.
as §2, §3, §4, §5, §6
“+++” indicates a CLint value less than 20 mL/min/Kg, “++” indicates a CLint between 20 and 50 mL/min/Kg, and “+” indicates an CLint above 50 mL/min/Kg.

[3] = Hepatocyte Stability Assay, human; type: in vitro ADME; conditions: for CLint scaled: human, plated hepatocytes; for CLint scaled / Human hepatocyte clearance Plated hepatocyte Alliance assay: plated hepatocyte; for Plated heps (% Qh) / Plated heps (% Qh), All: plated human hepatocytes; for Plated heps (% Qh), All: value in brackets marked "All"
[4] = Pharmaron assay, read-out: Human hepatocyte clearance Plated hepatocyte Pharmaron assay
[5] = Alliance assay, read-out: Human hepatocyte clearance Plated hepatocyte Alliance assay

| SMILES | Mouse hepatocyte clearance [1] | IC50 (AHR) | Rat hepatocyte clearance [2] | CLint scaled [3, 4] | Suspension mou. heps Clint (% Qh) [1] | Human hepatocyte clearance Plated hepatocyte Alliance assay ([3]; Alliance assay) | Plated heps (% Qh) [3] | Plated heps (% Qh), All [3] | Suspension Rat heps Clint (% Qh) [2] | CLint scaled [3, 5] |
| --- | --- | --- | --- | --- | --- | --- | --- | --- | --- | --- |
| C[C@@H](CO)n1cnc2c(-c3cccnc3)nc(-c3ccc(C4CC4)nc3)cc2c1=O [Compound 74] | + (“+” indicates an CLint above 50 mL/min/Kg) | < 0.1 µM | ++ (“++” indicates a CLint between 20 and 50 mL/min/Kg) | – | – | – | – | – | – | – |
| C[C@H](n1cnc2c(-c3cnn(C)c3)nc(-c3ccc(Cl)cc3)cc2c1=O)C(C)(C)O [Compound 30] | ++ (“++” indicates a CLint between 20 and 50 mL/min/Kg) | < 0.1 µM | ++ (“++” indicates a CLint between 20 and 50 mL/min/Kg) | < 20 mL/min/kg | – | – | – | – | – | – |
| C[C@@H](CO)n1cnc2c(-c3cnsc3)nc(-c3ccc(Cl)cc3)cc2c1=O [Compound 58] | ++ (“++” indicates a CLint between 20 and 50 mL/min/Kg) | < 0.1 µM | – | – | – | – | – | – | – | – |
| CC(C)(O)Cn1cnc2c(-c3cccnc3)nc(-c3ccc(Cl)cc3)cc2c1=O [Compound 18] | + (“+” indicates an CLint above 50 mL/min/Kg) | < 0.1 µM | +++ (“+++” indicates a CLint value less than 20 mL/min/Kg) | < 20 mL/min/kg | – | – | – | – | – | – |
| CC(C)(O)Cn1cnc2c(-c3cccnc3)nc(-c3ccc(C(F)(F)F)cc3)cc2c1=O [Compound 16] | ++ (“++” indicates a CLint between 20 and 50 mL/min/Kg) | < 0.1 µM | +++ (“+++” indicates a CLint value less than 20 mL/min/Kg) | < 20 mL/min/kg | – | – | – | – | – | – |
| O=c1c2cc(-c3ccc(Cl)cc3)nc(-c3cccnc3)c2ncn1[C@H]1COC[C@@H]1O [Compound 125, 6-(4-chlorophenyl)-3-((3S,4R)-4-hydroxytetrahydrofuran-3-yl)-8-(pyridin-3-yl)pyrido[3,4-d]pyrimidin-4(3H)-one] | – | < 0.1 µM | + (“+” indicates an CLint above 50 mL/min/Kg) | < 20 mL/min/kg | – | – | – | – | – | – |
| Cn1cc(-c2nc(-c3ccc(Cl)cc3)cc3c(=O)n(CC(C)(C)O)cnc23)cn1 [Compound 21] | ++ (“++” indicates a CLint between 20 and 50 mL/min/Kg) | < 0.1 µM | +++ (“+++” indicates a CLint value less than 20 mL/min/Kg) | – | – | – | – | – | – | – |
| O=c1c2cc(-c3ccc(Cl)cc3)nc(-c3cccnc3)c2ncn1C[C@@H](O)C(F)(F)F (single isomer, unassigned) [185 enantiomer 1] | + (“+” indicates an CLint above 50 mL/min/Kg) | < 0.1 µM | ++ (“++” indicates a CLint between 20 and 50 mL/min/Kg) | – | – | – | – | – | – | – |
| C[C@@H](CO)n1cnc2c(-c3cccnc3)nc(-c3ccc(C(F)(F)F)cn3)cc2c1=O [Compound 46, (S)-3-(1-hydroxypropan-2-yl)-8-(pyridin-3-yl)-6-(5-(trifluoromethyl)pyridin-2-yl)pyrido[3,4-d]pyrimidin-4(3H)-one] | ++ (“++” indicates a CLint between 20 and 50 mL/min/Kg) | < 0.1 µM | +++ (“+++” indicates a CLint value less than 20 mL/min/Kg) | < 20 mL/min/kg | < 33 % Qh | +++ (“+++” indicates a CLint value less than 20 mL/min/Kg) | < 1 % Qh | 1.0 % Qh | < 24 % Qh | – |
| Cn1cc(-c2nc(-c3ccc(C(F)(F)F)nc3)cc3c(=O)n(CC(C)(C)O)cnc23)cn1 [Compound 60] | ++ (“++” indicates a CLint between 20 and 50 mL/min/Kg) | < 0.1 µM | +++ (“+++” indicates a CLint value less than 20 mL/min/Kg) | < 20 mL/min/kg | – | – | – | – | – | – |
| CC(C)(O)Cn1cnc2c(-c3cccnc3)nc(-c3ccc(C(F)(F)F)nc3)cc2c1=O [Compound 9] | – | < 0.1 µM | +++ (“+++” indicates a CLint value less than 20 mL/min/Kg) | < 20 mL/min/kg | < 33 % Qh | +++ (“+++” indicates a CLint value less than 20 mL/min/Kg) | 2.1 % Qh | 0.6 % Qh | < 24 % Qh | – |
| C[C@@H](CO)n1cnc2c(-c3cccnc3)nc(-c3ccc(OC(F)(F)F)cc3)cc2c1=O [Compound 22] | ++ (“++” indicates a CLint between 20 and 50 mL/min/Kg) | < 0.1 µM | ++ (“++” indicates a CLint between 20 and 50 mL/min/Kg) | – | – | – | – | – | – | – |
| C[C@@H](CO)n1cnc2c(-c3cccc(F)c3)nc(-c3ccc(Cl)cc3)cc2c1=O [Compound 7] | ++ (“++” indicates a CLint between 20 and 50 mL/min/Kg) | < 0.1 µM | ++ (“++” indicates a CLint between 20 and 50 mL/min/Kg) | – | – | – | – | – | – | – |
| C[C@@H](CO)n1cnc2c(-c3cnn(C)c3)nc(-c3ccc(C(F)(F)F)nc3)cc2c1=O [Compound 68] | – | < 0.1 µM | +++ (“+++” indicates a CLint value less than 20 mL/min/Kg) | – | – | – | – | – | – | < 20 mL/min/kg |
| O=c1c2cc(-c3ccc(C(F)(F)F)nc3)nc(-c3cccnc3)c2ncn1[C@@H]1COC[C@H]1O [Compound 79] | – | < 0.1 µM | +++ (“+++” indicates a CLint value less than 20 mL/min/Kg) | < 20 mL/min/kg | – | – | – | – | – | – |
| O=c1c2cc(-c3ccc(Cl)cc3)nc(-c3cccnc3)c2ncn1C[C@H](O)C(F)(F)F (single isomer, unassigned) [185 enantiomer 2] | + (“+” indicates an CLint above 50 mL/min/Kg) | < 0.1 µM | ++ (“++” indicates a CLint between 20 and 50 mL/min/Kg) | – | – | – | – | – | – | – |
| C[C@@H](CO)n1cnc2c(-n3ccnc3)nc(-c3ccc(C(F)(F)F)nc3)cc2c1=O [Compound 163, (S)-3-(1-hydroxypropan-2-yl)-8-(1H-imidazol-1-yl)-6-(6-(trifluoromethyl)pyridin-3-yl)pyrido[3,4-d]pyrimidin-4(3H)-one] | – | < 0.1 µM | – | – | – | – | – | – | – | < 20 mL/min/kg |
| Cc1ccc(-c2cc3c(=O)n([C@@H](C)CO)cnc3c(-c3cccnc3)n2)cc1 [Compound 17, (S)-3-(1-hydroxypropan-2-yl)-8-(pyridin-3-yl)-6-(p-tolyl)pyrido[3,4-d]pyrimidin-4(3H)-one] | + (“+” indicates an CLint above 50 mL/min/Kg) | < 0.1 µM | + (“+” indicates an CLint above 50 mL/min/Kg) | – | – | – | – | – | – | – |
